Assay [1] has as its target T1, cytoplasmic domain of the human CSF-1R (Homo sapiens, UniProt P07333).
T1 construct: Recombinant protein corresponding to the cytoplasmic domain of the human CSF-1R; purchased Invitrogen Corporation, Carlsbad, Calif; PV3249
T1 sequence (P07333 539-972 limits assumed): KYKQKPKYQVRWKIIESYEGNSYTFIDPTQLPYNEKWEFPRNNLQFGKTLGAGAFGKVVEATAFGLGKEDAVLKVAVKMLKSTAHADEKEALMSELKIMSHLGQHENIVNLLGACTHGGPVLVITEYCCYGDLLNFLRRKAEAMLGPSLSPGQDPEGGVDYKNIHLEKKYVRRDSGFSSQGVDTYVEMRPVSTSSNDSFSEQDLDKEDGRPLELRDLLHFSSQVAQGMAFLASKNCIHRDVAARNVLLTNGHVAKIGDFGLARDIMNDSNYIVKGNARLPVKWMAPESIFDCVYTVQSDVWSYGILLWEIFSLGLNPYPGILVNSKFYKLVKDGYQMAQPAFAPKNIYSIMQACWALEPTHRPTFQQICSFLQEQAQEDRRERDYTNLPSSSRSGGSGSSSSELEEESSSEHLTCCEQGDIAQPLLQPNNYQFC
As to the kind of experiment: In vitro kinase assay for colony stimulating factor-1 receptor (AlphaScreen). Particulars: tested at about 1 μM, read-out: CSF-1R percent inhibition. The format is biochemical. The method, boiled down:
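Kinase reaction used 4 nM recombinant cytoplasmic domain at 1 μM ATP in 50 mM Hepes pH 7.5 with 5 mM MgCl2, 10 mM MnCl2, 0.1% BSA, 1.0 mM DTT and 0.01% Tween 80. Compounds were serially diluted 3-fold from 25 μM. Phosphopeptide was detected by AlphaScreen, PT66 anti-phosphotyrosine acceptor plus streptavidin donor beads, read after overnight incubation.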
Background: In Alpha technology, singlet oxygen from a donor bead excites a nearby acceptor bead.

For assay [2], the target named is T2, kinase domain of cKIT (Homo sapiens, UniProt P10721).
T2 construct: The kinase domain of cKIT was assayed in 50 mM Hepes; purchased Upstate 14-559
T2 sequence (P10721 589-937 limits assumed): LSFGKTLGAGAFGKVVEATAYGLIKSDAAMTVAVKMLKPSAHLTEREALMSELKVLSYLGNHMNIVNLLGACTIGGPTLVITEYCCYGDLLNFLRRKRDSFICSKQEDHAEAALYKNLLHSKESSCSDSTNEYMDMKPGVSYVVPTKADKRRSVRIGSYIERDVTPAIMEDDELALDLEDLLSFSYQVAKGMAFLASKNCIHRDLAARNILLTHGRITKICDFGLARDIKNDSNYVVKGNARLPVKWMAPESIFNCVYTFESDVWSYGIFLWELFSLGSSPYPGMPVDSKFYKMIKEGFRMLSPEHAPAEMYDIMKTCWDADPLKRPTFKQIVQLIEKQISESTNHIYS
As to the kind of experiment: Inhibition of cKIT kinase signaling in an in vitro biochemical assay (alphascreen). Particulars: tested at about 1 μM, read-out: cKit percent inhibition.

The target of assay [3] is T3, kinase domain of PDGFRβ (Homo sapiens, UniProt P09619).
T3 construct: The kinase domain of PDGFRβ was assayed in 50 mM Hepes; purchased Invitrogen P3082
T3 sequence (P09619 600-962 limits assumed): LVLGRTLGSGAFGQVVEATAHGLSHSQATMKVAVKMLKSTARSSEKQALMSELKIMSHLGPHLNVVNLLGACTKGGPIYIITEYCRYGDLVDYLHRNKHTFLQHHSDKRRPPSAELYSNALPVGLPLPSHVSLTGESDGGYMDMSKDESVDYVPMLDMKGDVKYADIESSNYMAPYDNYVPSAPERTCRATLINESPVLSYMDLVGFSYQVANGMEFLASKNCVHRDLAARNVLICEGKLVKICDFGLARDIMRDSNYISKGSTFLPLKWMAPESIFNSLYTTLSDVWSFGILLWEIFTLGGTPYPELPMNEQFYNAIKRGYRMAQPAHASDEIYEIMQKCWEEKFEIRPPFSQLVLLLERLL
Description: Inhibition of PDGFRb kinase signaling in an in vitro biochemical assay (alphascreen). Particulars: tested at about 1 μM, read-out: PDGFRβ percent inhibition.

For assay [4], the system named is MNFS60 (murine AML cells). As to the kind of experiment: Cell viability assay in MCSF dependent MNFS60 cells (Cell Titer Glo). Particulars: Mus musculus, tested at about 1 μM, read-out: M-NFS-60 CP percent inhibition. The format is cell-based. As to the method:
Cell viability was assessed by Cell Titer Glo, Promega. […] Test compounds were serially diluted (3 fold) in DMSO to 500× the final concentration. […] Final concentration of MCSF is 10 ng/ml. Cells were incubated for 72 hrs at 37° C., 5% CO2. After the incubation 100 μl Cell Titer Glo is added to each well to determine viable cells. The assay was performed according to the manufacturer's instruction (Promega Corporation, Madison, Wis. USA). Each experimental condition was performed in triplicate. Raw data was imported in Abase and EC50s calculated with XL-fit data analysis software.
(In general: Cellular ATP, detected with luciferase, serves as a proxy for viable cell number.)

Where two headings read alike, the source gives them in different places.

In general, inhibition refers to the percentage by which the read-out fell short of the control. Take `CNC(=O)c1cc(Oc2ccc3nc(NCc4c(Cl)cccc4Cl)sc3c2)ccn1` [Compound 158, 4-[2-(2,6-Dichloro-benzylamino)-benzothiazol-6-yloxy]-pyridine-2-carboxylic acid methylamide]: the inhibition at 1 µM in assay [1] stood at 99%; in assay [2] it was 11%; in assay [3], 2%; in assay [4] (MNFS60 cells), 1%.
Consider `O[C@@H]1CCCC[C@H]1Nc1nc2ccc(Oc3ccnc(-c4cncs4)c3)cc2s1` [Compound 157], for which the inhibition at 1 µM in assay [1] (compounds of Table 3) was 100%; in assay [2] (compounds of Table 3), 43%; in assay [3] (compounds of Table 3) it was 17%; in assay [4] (compounds of Table 3), 42%.
For `CNC(=O)c1cc(Oc2ccc3nc(NCCC(C)C)sc3c2)ccn1` [Compound 130], in that order: 100%, 90%, 70% and 79%.
For `Fc1cc2nccc(Oc3ccc4nc(NCC5CCCCC5)sc4c3)c2cc1F` [Example 211], in that order: 100%, 85%, 50% and 23%.
`CNC(=O)c1cc(Oc2ccc3nc(N[C@@H]4CCC[C@H]4O)sc3c2)ccn1` [Example 324, 4-(2-((1R,2R)-2-hydroxycyclopentylamino)benzo[d]thiazol-6-yloxy)-N-methylpicolinamide]: the inhibition at 1 µM turned out to be 99% in assay [1], 21% in assay [2], 19% in assay [3] and 15% in assay [4] (MCSF dependent MNFS60 cells).
For the molecule `CNC(=O)c1cc(Oc2ccc3nc(Nc4cccc(CCN5CCCCC5)c4)oc3c2)ccn1` [Compound 58, 4-{2-[3-(2-Piperidin-1-yl-ethyl)-phenylamino]-benzooxazol-6-yloxy}-pyridine-2-carboxylic acid methylamide], the inhibition at 1 µM in assay [1] came out at 98%; in assay [2], 48%; in assay [3], 85%; in assay [4] (MNFS60 cells), 30%.
For `CNC(=O)c1cc(Oc2ccc3nc(NCc4cc(Cl)ccc4OC)oc3c2)ccn1` [Compound 114, 4-[2-(5-Chloro-2-methoxy-benzylamino)-benzooxazol-6-yloxy]-pyridine-2-carboxylic acid methylamide], in that order: 100%, 92%, 15% and 36%.
Regarding `Nc1ncc(-c2cc(Oc3ccc4nc(N[C@@H]5CCCC[C@H]5O)sc4c3)ccn2)cc1C(F)(F)F` [Example 282, (1R,2R)-2-(6-(6'-amino-5'-(trifluoromethyl)-2,3'-bipyridin-4-yloxy)benzo[d]thiazol-2-ylamino)cyclohexanol], the inhibition at 1 µM in assay [1] (compounds of Table 3) worked out at 99%; in assay [2] (compounds of Table 3), 23%; in assay [3] (compounds of Table 3), 7%; in assay [4] (compounds of Table 3), 22%.
In the case of `FC(F)Oc1ccccc1CNc1nc2ccc(Oc3ccnc4ccccc34)cc2s1` [Example 246, N-(2-(difluoromethoxy)benzyl)-6-(quinolin-4-yloxy)benzo[d]thiazol-2-amine], the inhibition at 1 µM in assay [1] (compounds of Table 3) amounted to 100%; in assay [2] (compounds of Table 3) it was 100%; in assay [3] (compounds of Table 3), 82%; in assay [4] (compounds of Table 3), 100%.
Turning to `c1ccc2c(Oc3ccc4nc(NCCC5CCOCC5)sc4c3)ccnc2c1` [Example 252, 6-(quinolin-4-yloxy)-N-(2-(tetrahydro-2H-pyran-4-yl)ethyl)benzo[d]thiazol-2-amine], the inhibition at 1 µM in assay [1] (compounds of Table 3) was determined as 100%; in assay [2] (compounds of Table 3) it was 100%; in assay [3] (compounds of Table 3) it was 6%; in assay [4] (compounds of Table 3) it was 81%.
Take `CNC(=O)c1cc(Oc2ccc3nc(NCc4ccc(OC)c(OC)c4)sc3c2)ccn1` [Compound 151, 4-[2-(3,4-Dimethoxy-benzyl-amino)-benzothiazol-6-yloxy]-pyridine-2-carboxylic acid methylamide]: the inhibition at 1 µM in assay [1] was 99%; in assay [2], 5%; in assay [3], 0%; in assay [4] (MNFS60 cells), 26%.
For `CCOC(=O)C1(CNc2nc3ccc(Oc4ccnc(C(=O)NC)c4)cc3o2)CCCCC1` [Compound 75, 1-{[6-(2-Methylcarbamoyl-pyridin-4-yloxy)-benzooxazol-2-ylamino]-methyl}-cyclohexane-carboxylic acid ethyl ester], in that order: 99%, 7%, 0% and 0%.
As for `CNC(=O)c1cc(Oc2ccc3nc(Nc4ccccc4)oc3c2)ccn1` [Compound 26, 4-(2-Phenylamino-benzooxazol-6-yloxy)-pyridine-2-carboxylic acid methylamide], the values for the inhibition at 1 µM in assay [1], in assay [3] and in assay [4] (MNFS60 cells) were 98%, 100% and 24%, respectively.
For `CC[C@@H](Nc1nc2ccc(Oc3ccnc(C(=O)NC)c3)cc2o1)c1ccccc1` [Compound 19, 4-[2-((R)-1-Phenyl-propyl-amino)-benzooxazol-6-yloxy]-pyridine-2-carboxylic acid methylamide], in that order: 100%, 2% and 36%.
For `CNC(=O)c1cc(Oc2ccc3nc(Nc4ccccc4-c4cnco4)oc3c2)ccn1` [Compound 46, 4-[2-(2-Oxazol-5-yl-phenylamino)-benzooxazol-6-yloxy]-pyridine-2-carboxylic acid methylamide], in that order: 94%, 15% and 1%.
For `CNC(=O)c1cc(Oc2ccc3nc(NCc4c(F)cccc4F)oc3c2)ccn1` [Compound 87, 4-[2-(2,6-Difluoro-benzylamino)-benzooxazol-6-yloxy]-pyridine-2-carboxylic acid methylamide], the inhibition at 1 µM was determined as 99% in assay [1], 42% in assay [2] and 21% in assay [4] (MNFS60 cells).
With `CNC(=O)c1cc(Oc2ccc3nc(NC4CCCCC4)oc3c2)ccn1` [Compound 24, 4-(2-Cyclohexylamino-benzooxazol-6-yloxy)-pyridine-2-carboxylic acid methylamide], the inhibition at 1 µM is 99% in assay [1], 20% in assay [3] and 12% in assay [4] (MNFS60 cells).
As for `CNC(=O)c1cc(Oc2ccc3nc(NCc4ccc(OC)c(OC)c4)oc3c2)ccn1` [Compound 90, 4-[2-(3,4-Dimethoxy-benzyl-amino)-benzooxazol-6-yloxy]-pyridine-2-carboxylic acid methylamide], the inhibition at 1 µM was found to be 99% in assay [1], 22% in assay [2] and 18% in assay [4] (MNFS60 cells).
For the molecule `CNC(=O)c1cc(Oc2ccc3nc(Nc4ccccc4CCN4CCOCC4)oc3c2)ccn1` [Compound 48, 4-{2-[2-(2-Morpholin-4-yl-ethyl)-phenylamino]-benzo-oxazol-6-yloxy}-pyridine-2-carboxylic acid methylamide], the values for the inhibition at 1 µM in assay [1], in assay [3] and in assay [4] (MNFS60 cells) were 84%, 0% and 0%, respectively.
Take `CNC(=O)c1cc(Oc2ccc3nc(Nc4cccc5c4OCCO5)oc3c2)ccn1` [Compound 94, 4-[2-(2,3-Dihydro-benzo-[1,4]dioxin-5-ylamino)-benzooxazol-6-yloxy]-pyridine-2-carboxylic acid methylamide]: the inhibition at 1 µM in assay [1] was found to be 99%; in assay [2] it was 14%; in assay [4] (MNFS60 cells), 28%.
For `CNC(=O)c1cc(Oc2ccc3nc(NCc4ccc(OC)cc4OC)oc3c2)ccn1` [Compound 92, 4-[2-(2,4-Dimethoxy-benzyl-amino)-benzooxazol-6-yloxy]-pyridine-2-carboxylic acid methylamide], in that order: 99%, 98% and 17%.
